From patent US10253041B2, “7-phenylethylamino-4H-pyrimido[4,5-d][1,3]oxazin-2-one compounds and their use as mutant IDH1 inhibitors” (Eli Lilly and Company, priority 2015, dated 2019) come the findings set out here.

One test concerns the target T1, IDH2/R140Q (Homo sapiens, UniProt P48735, R140Q).
T1 construct: His-tag (N); made in house; host or cells: E. coli
T1 sequence (P48735 40-452 R140Q): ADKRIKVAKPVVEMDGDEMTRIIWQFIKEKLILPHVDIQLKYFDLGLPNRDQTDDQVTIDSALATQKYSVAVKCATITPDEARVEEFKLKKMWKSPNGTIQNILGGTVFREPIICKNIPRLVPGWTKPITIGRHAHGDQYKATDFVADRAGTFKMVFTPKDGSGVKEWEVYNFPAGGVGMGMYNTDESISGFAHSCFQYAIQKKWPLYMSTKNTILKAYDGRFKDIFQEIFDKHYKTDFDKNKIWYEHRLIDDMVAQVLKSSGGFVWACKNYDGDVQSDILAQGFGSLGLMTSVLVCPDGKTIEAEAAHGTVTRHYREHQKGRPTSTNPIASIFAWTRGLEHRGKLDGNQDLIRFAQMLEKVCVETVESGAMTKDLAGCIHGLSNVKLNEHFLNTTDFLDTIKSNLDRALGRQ
In words: Biochemical assay for IDH2 R140Q mutant enzyme (2HG by RapidFire MS). The settings on record: mean ± standard deviation of the mean; 90 minutes reaction. The method, then:
(§1) IDH1-R132H, IDH1-R132C, IDH2-R172K and IDH2-R140Q mutant enzymes catalyze the conversion of αKG to 2HG. 2HG is analyzed using in-line solid phase extraction and mass spectrometry. This analysis is carried out in a RapidFire® instrument coupled to a 6460 triple quadrupole mass spectrometer (G6460A Agilent).
(§2) IDH1 mutant (R132H and R132C) and IDH2 mutant (R140Q and R172K) proteins containing N-terminal His-tag are expressed in E. coli and purified using nickel affinity chromatography. The enzyme assays are carried out in V-bottom 96 well polypropylene plates containing 100 mM Tris-HCl buffer, 1 mM DTT, 0.005% TRITON™ X-100, 120 mM NaCl. For IDH1 R132H, α-ketoglutarate, NADPH and MnCl2 are included at final concentrations of 300 μM, 2.5 μM and 300 μM respectively. For IDH1 R132C, α-ketoglutarate, NADPH and MnCl2 are included at final concentrations of 100 μM, 10 μM and 100 μM respectively. For IDH2 R172K, α-ketoglutarate, NADPH and MnCl2 are included at final concentrations of 150 μM, 10 μM and 150 μM respectively. For IDH2 R140Q, α-ketoglutarate, NADPH and MnCl2 are included at final concentrations of 3000 μM, 10 μM and 100 μM respectively. Final pH=7.0. Test compound dissolved in DMSO stock is diluted in the reaction mix at a final DMSO concentration of 4%. Compounds are tested in dose-response format. The assay is started by addition of enzyme. Enzymes are used at the following final concentrations: IDH1 R132H, 2 nM; IDH1 R132C, 0.5 nM; IDH2 R172K, 1.2 nM; IDH2 R140Q, 1.2 nM. After 90 minutes the reaction is quenched by adding ACN (50:50) containing 3-hydroxy-1,5-pentanedioic-2,2,3,4,4-d5 acid (5d5-3HG) as an internal standard for mass spectrometry analysis and quantitation of reaction product. 2-Hydroxyglutarate (2HG) in quenched samples is separated using strong anionic exchange column chromatography (Phenomenex Strata-X-A SecurityGuard) and analyzed by mass spectrometry in a 6460 triple quadrupole mass spectrometer (G6460A Agilent). The 2HG signal detected is transformed into an analyte concentration using a calibration curve generated using known 2HG concentrations. […] IC50 values are obtained from the individual % inhibition values at different compound concentrations using a 4-parameter equation. These calculations are carried out using Activity Base (IDBS) or Screener (Genedata) data analysis programs.

The target of a further test is T2, IDH2/R172K (Homo sapiens, UniProt P48735, R172K).
T2 construct: His-tag (N); made in house; host or cells: E. coli
T2 sequence (P48735 40-452 R172K): T1 sequence (P48735 40-452 R140Q) with Q101R, R133K
Nature of the test: Biochemical assay for IDH2 R172K mutant enzyme (2HG by RapidFire MS). The conditions noted are these: mean ± standard deviation of the mean; 90 minutes reaction. The protocol:
as §1, §2

In test [1] the test system is IDH1/R132H in U87MG glioma cells. Nature of the test: U87MG/IDH1R132H cell assay (intracellular 2HG). Format: cell-based. The settings on record: 1 hour + 18 hours incubation, read-out: U87MG (IDH1/R132H 2-hydroxyglutarate IC50). The method, then:
To test the cellular inhibition of IDH1 mutant R132C, the fibrosarcoma cell line HT1080 (purchased from ATCC) is used. For testing cell-based inhibition of the R132H mutation, the U87MG glioma cell line (ATCC) was stably transfected with a DNA construct expressing the R132H mutant enzyme.
Cells are plated in poly-D-lys coated 96 well plates (12,000 cells/well) 18-24 hours previous to treatment with compounds. Four hours prior to compound treatment, cells are glutamine-starved by removing normal media and replacing with glutamine-free media. Following starvation, cells are then treated with different concentrations of test compounds (20 μM to 1 nM) dissolved in glutamine free media containing DMSO at a final concentration of 0.2%. The initial compound incubation is for 1 hour at 37° C./5% CO2. After 1 hour, glutamine is added to a final 2 mM concentration and the treated cells are then incubated for a further 18 hours at 37° C./5% CO2. Intracellular 2HG is analyzed in cell lysates obtained after media removal and treatment with lysis buffer (25 mM Tris-HCl pH 7.5, 150 mM NaCl, 1 mM EDTA, 1 mM EGTA/1% Triton-X 100). Cell lysates are conserved at −80° C. until processing. For analyte extraction, an aliquot of thawed lysate is transferred to a deep 96-well plate and treated with cold MeOH containing d5-3HG as an internal standard followed by chloroform and H2O (1:4:3:2). The upper phase is collected after separation and injected in HPLC to separate 2HG (and internal standard) using hydrophilic interaction (HILIC) chromatography coupled to MS/MS detection in a 6460 triple quadrupole mass spectrometer. Percent inhibition for each individual sample is obtained after normalizing calculated 2HG concentration to maximum and minimum references obtained in the presence and in the absence of glutamine during cell treatment with compounds. IC50 values are obtained from individual % inhibition using a sigmoidal dose-response 4-parameter equation. These calculations are carried out automatically using Activity Base (IDBS) or Screener (Genedata) data analysis programs.

Residue numbers refer to the chain shown, from its start. Read-outs that look alike come from different tables or passages of the source. Bounds are passed on as bounds.

On to `C=CC(=O)N1CC(CCc2ccc([C@H](C)Nc3ncc4c(n3)N(CC)C(=O)OC4)cc2)C1` [Example 7, 1-Ethyl-7-[[(1S)-1-[4-[2-(1-prop-2-enoylazetidin-3-yl)ethyl]phenyl]ethyl]amino]-4H-pyrimido[4,5-d][1,3]oxazin-2-one], for which the IC50 came to 10.9 µM on IDH2/R140Q; 0.482 µM at IDH2/R172K; 0.00564 ± 0.00035 µM in test [1] (Homo sapiens, U-87 MG, 19 h).

As for `C=CC(=O)N1CCN(Cc2ccc([C@H](C)Nc3ncc4c(n3)N(CC)C(=O)OC4)cc2F)CC1` [Example 16, 1-Ethyl-7-[[(1S)-1-[3-fluoro-4-[(4-prop-2-enoylpiperazin-1-yl)methyl]phenyl]ethyl]amino]-4H-pyrimido[4,5-d][1,3]oxazin-2-one], the IC50 was 49 µM at IDH2/R140Q; 4.1 µM on IDH2/R172K; 0.00579 ± 0.00057 µM in test [1] (Homo sapiens, U-87 MG, 19 h).

For the molecule `C=CC(=O)N1CC=C(COc2ccc([C@H](C)Nc3ncc4c(n3)N(CC)C(=O)OC4)cc2)C1` [Example 22, 1-ethyl-7-[[(1S)-1-[4-[(1-prop-2-enoyl-2,5-dihydropyrrol-3-yl)methoxy]phenyl]ethyl]amino]-4H-pyrimido[4,5-d][1,3]oxazin-2-one], the figures for the IC50 against IDH2/R140Q and against IDH2/R172K were 11.6 ± 2 µM and 0.469 ± 0.355 µM, respectively.

Regarding `C=CC(=O)N1CC2(CN(Cc3ccc([C@H](C)Nc4ncc5c(n4)N(C(C)C)C(=O)OC5)cc3)C2)C1` [Example 15, 1-Isopropyl-7-[[(1S)-1-[4-[(2-prop-2-enoyl-2,6-diazaspiro[3.3]heptan-6-yl)methyl]phenyl]ethyl]amino]-4H-pyrimido[4,5-d][1,3]oxazin-2-one], the IC50 is more than 100 µM at IDH2/R140Q; 10.4 µM against IDH2/R172K; 0.0039 µM in test [1] (Homo sapiens, U-87 MG, 19 h).

Take `C=CC(=O)N1CCC(N(C)Cc2ccc([C@H](C)Nc3ncc4c(n3)N(CC)C(=O)OC4)cc2)CC1` [Example 12, 1-Ethyl-7-[[(1S)-1-[4-[[methyl-(1-prop-2-enoyl-4-piperidyl)amino]-methyl]phenyl]ethyl]amino]-4H-pyrimido[4,5-d][1,3]oxazin-2-one]: the IC50 was more than 100 µM against IDH2/R140Q; 25.3 µM at IDH2/R172K; 0.0135 ± 0.0011 µM in test [1] (Homo sapiens, U-87 MG).

Turning to `C=CC(=O)N1CCC2(CC1)CN(Cc1ccc([C@H](C)Nc3ncc4c(n3)N(C(C)C)C(=O)OC4)cc1)C2` [Example 8, 1-Isopropyl-7-[[(1S)-1-[4-[(7-prop-2-enoyl-2,7-diazaspiro[3.5]nonan-2-yl)methyl]phenyl]ethyl]amino]-4H-pyrimido[4,5-d][1,3]oxazin-2-one], the IC50 was more than 100 µM at IDH2/R140Q; 51.7 µM on IDH2/R172K; 0.0189 ± 0.0051 µM in test [1] (Homo sapiens, U-87 MG, 19 h).

Regarding `C=CC(=O)N1CC(COc2ccc([C@H](C)Nc3ncc4c(n3)N(CC)C(=O)OC4)cc2)C1` [Example 17, 1-Ethyl-7-[[(1S)-1-[4-[(1-prop-2-enoylazetidin-3-yl)methoxy]phenyl]ethyl]amino]-4H-pyrimido[4,5-d][1,3]oxazin-2-one], the IC50 against IDH2/R140Q stood at 48.7 µM; at IDH2/R172K it was 1.74 µM; in test [1] (Homo sapiens, U-87 MG, 19 h) it was 0.00675 ± 0.00113 µM.

Take `C=CC(=O)N1CCN(Cc2ccc([C@H](C)Nc3ncc4c(n3)N(CC)C(=O)OC4)cc2)CC1` [Example 2, 1-Ethyl-7-[[(1S)-1-[4-[(4-prop-2-enoylpiperazin-1-yl)methyl]phenyl]ethyl]amino]-4H-pyrimido[4,5-d][1,3]oxazin-2-one]: the IC50 stood at 73.9 µM on IDH2/R140Q, 5.26 µM against IDH2/R172K and 0.00508 ± 0.00165 µM in test [1].

For `C=CC(=O)N1CC(COc2ccc([C@H](C)Nc3ncc4c(n3)N(C(C)C)C(=O)OC4)cc2)C1` [Example 9, 1-Isopropyl-7-[[(1S)-1-[4-[(1-prop-2-enoylazetidin-3-yl)methoxy]-phenyl]ethyl]amino]-4H-pyrimido[4,5-d][1,3]oxazin-2-one], the IC50 stood at 27 µM against IDH2/R140Q; 2.09 µM against IDH2/R172K; 0.00368 ± 0.00057 µM in test [1] (Homo sapiens, U-87 MG, 19 h).

As to `C=CC(=O)N1CC2(CN(Cc3ccc([C@H](C)Nc4ncc5c(n4)N(CC(C)C)C(=O)OC5)cc3)C2)C1` [Example 5, 1-Isobutyl-7-[[(1S)-1-[4-[(2-prop-2-enoyl-2,6-diazaspiro[3.3]heptan-6-yl)methyl]phenyl]ethyl]amino]-4H-pyrimido[4,5-d][1,3]oxazin-2-one], the IC50 was more than 100 µM against IDH2/R140Q; 13.6 µM against IDH2/R172K; 0.00984 ± 0.0081 µM in test [1] (Homo sapiens, U-87 MG, 19 h).

As to `C=CC(=O)N1CCN(Cc2ccc([C@H](C)Nc3ncc4c(n3)N(CC(C)C)C(=O)OC4)cc2)CC1` [Example 3, 1-Isobutyl-7-[[(1S)-1-[4-[(4-prop-2-enoylpiperazin-1-yl)methyl]phenyl]ethyl]amino]-4H-pyrimido[4,5-d][1,3]oxazin-2-one], the IC50 came out at 59.5 µM at IDH2/R140Q; 5.35 µM against IDH2/R172K; 0.0059 µM in test [1] (Homo sapiens, U-87 MG, 19 h).

For the molecule `C=CC(=O)N1CC(OCc2ccc([C@H](C)Nc3ncc4c(n3)N(CC)C(=O)OC4)cc2)C1` [Example 4, 1-Ethyl-7-[[(1S)-1-[4-[(1-prop-2-enoylazetidin-3-yl)oxymethyl]phenyl]ethyl]amino]-4H-pyrimido[4,5-d][1,3]oxazin-2-one], the IC50 at IDH2/R140Q was 37.7 µM; against IDH2/R172K, 1.46 µM; in test [1] (Homo sapiens, U-87 MG, 19 h), 0.00298 ± 0.00258 µM.

Consider `C=CC(=O)N1CC2(CN(Cc3ccc([C@H](C)Nc4ncc5c(n4)N(CC)C(=O)OC5)cc3)C2)C1` [Example 14, 1-Ethyl-7-[[(1S)-1-[4-[(2-prop-2-enoyl-2,6-diazaspiro[3.3]heptan-6-yl)methyl]phenyl]ethyl]amino]-4H-pyrimido[4,5-d][1,3]oxazin-2-one], for which the IC50 against IDH2/R140Q is more than 100 µM; at IDH2/R172K, 13 µM; in test [1] (Homo sapiens, U-87 MG, 19 h), 0.00975 ± 0.00241 µM.
